“Also recorded” adds a separate entry of the source.
Columns and labels:
[1] = biological target: T1, V2R (Homo sapiens, UniProt P30518); conditions: ligand is inverse agonist in the AC pathway; leads to activation of the ERK cascade; cited from earlier work
Target sequence in this assay (P30518 whole entry): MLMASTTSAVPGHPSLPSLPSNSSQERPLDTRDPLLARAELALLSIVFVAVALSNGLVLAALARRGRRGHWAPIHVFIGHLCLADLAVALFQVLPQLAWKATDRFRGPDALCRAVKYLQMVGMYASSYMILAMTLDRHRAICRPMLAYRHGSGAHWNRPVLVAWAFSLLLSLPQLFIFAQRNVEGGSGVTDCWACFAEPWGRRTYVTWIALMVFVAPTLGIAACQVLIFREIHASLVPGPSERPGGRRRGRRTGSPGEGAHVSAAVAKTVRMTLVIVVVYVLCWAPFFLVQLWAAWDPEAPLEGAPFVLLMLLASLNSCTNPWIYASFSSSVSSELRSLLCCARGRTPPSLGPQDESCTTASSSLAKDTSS
Target sequence in this assay (P32121 whole entry partner): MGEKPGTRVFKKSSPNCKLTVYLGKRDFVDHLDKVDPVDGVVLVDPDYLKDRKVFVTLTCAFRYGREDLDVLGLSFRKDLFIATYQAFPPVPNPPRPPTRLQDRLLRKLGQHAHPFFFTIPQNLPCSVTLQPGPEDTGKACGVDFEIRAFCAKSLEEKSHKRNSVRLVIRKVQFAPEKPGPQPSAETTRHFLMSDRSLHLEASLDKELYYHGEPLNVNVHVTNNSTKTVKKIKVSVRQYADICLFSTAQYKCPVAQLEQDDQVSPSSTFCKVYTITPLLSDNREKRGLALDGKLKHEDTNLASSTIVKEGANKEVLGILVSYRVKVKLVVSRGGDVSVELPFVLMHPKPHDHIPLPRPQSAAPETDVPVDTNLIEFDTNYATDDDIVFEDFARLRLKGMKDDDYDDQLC

[2] = biological target: T1, V2R; assay: Intramolecular BRET1 of double-brilliance β-arr (Luc-β-arr-YFP): conformational change of β-arr; assay type: cell-based; parameters: expressed in transfected cells; host or cells: HEK293; conditions: HEK293 cells co-expressing V2R and Luc-β-arr-YFP
Target sequence in this assay (P30518 whole entry): as the sequence (P30518 whole entry) above
Experimental: HEK293 cells were transfected with the indicated plasmids and BRET was measured at 25° C. in the presence of coelenterazine h. […] Data are the mean±s.e.m. of at least three independent experiments. *P<0.01 between treated and control condition.
The basal BRET signals were subtracted from each condition to express the data as ligand-induced BRET increase.
BRET assays. […] Briefly, cells were distributed in 96-well microplates (Corning, Corning, USA) and incubated with or without agonist for the indicated time at 25° C. The appropriate Luc substrate was added to a final concentration of 5 mM, either simultaneously with the agonist (time course) or following agonist treatment (single measurement or dose dependency), and readings were collected using a Multilabel Reader Mithras LB 940 (Berthold Technologies, Bad Wildbad, Germany). […] The BRET signal was determined by calculating the ratio of the light emitted by the fluorescent acceptor and the light emitted by Luc. The values were corrected by subtracting the background BRET signals detected when Luc-β-arr was expressed alone.

Compound: CCOc1ccc2c(c1)C1(CCC(OCCN3CCOCC3)CC1)C(=O)N2S(=O)(=O)c1ccc(C(=O)NC(C)(C)C)cc1OC (centres unmarked) [SR121463]
- recruitment of β-arr [1]: induced the recruitment of β-arr
- ligand-induced intramolecular BRET increase [2]: significantly lower than that induced by AVP treatment; also recorded: can promote an increase in the BRET signal

From patent publication US8883486B2, “Arrestin biosensor” (Universite de Montreal, priority 2004, dated 2014)
